Data published in the supplement of paper PMC11451515.

Tested on: SEM cells
Assay: cell viability relative to DMSO control; higher = less cytotoxic
Settings: 48 h
In short: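 NOMO1 or SEM (500 cells/well) or P12-Ichikawa (1000 cells/well) leukemia cells were adapted for at least four passages in each medium. They were seeded in 1536-well plates (5 μl) and pin-dosed with library compounds in DMSO over an 11-point threefold series, 47 μM to 0.79 nM. CellTiter-Glo One luminescence was read after 48 h at 37°C. Viability is the per-plate percentage relative to DMSO wells, with cell-free wells as background.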

[1] = RPMI 5 mM glucose + 10% dialyzed FBS, 0.000781 µM
[2] = RPMI 5 mM glucose + 10% dialyzed FBS, 0.00234 µM
[3] = RPMI 5 mM glucose + 10% dialyzed FBS, 0.00702 µM
[4] = RPMI 5 mM glucose + 10% dialyzed FBS, 0.0211 µM
[5] = RPMI 5 mM glucose + 10% dialyzed FBS, 0.0632 µM
[6] = RPMI 5 mM glucose + 10% dialyzed FBS, 0.19 µM
[7] = RPMI 5 mM glucose + 10% dialyzed FBS, 0.569 µM
[8] = RPMI 5 mM glucose + 10% dialyzed FBS, 1.71 µM
[9] = RPMI 5 mM glucose + 10% dialyzed FBS, 5.12 µM
[10] = RPMI 5 mM glucose + 10% dialyzed FBS, 15.4 µM
[11] = RPMI 5 mM glucose + 10% dialyzed FBS, 46.1 µM
[12] = HPLM + 10% dialyzed FBS, 0.000781 µM
[13] = HPLM + 10% dialyzed FBS, 0.00234 µM
[14] = HPLM + 10% dialyzed FBS, 0.00702 µM
[15] = HPLM + 10% dialyzed FBS, 0.0211 µM
[16] = HPLM + 10% dialyzed FBS, 0.0632 µM
[17] = HPLM + 10% dialyzed FBS, 0.19 µM
[18] = HPLM + 10% dialyzed FBS, 0.569 µM
[19] = HPLM + 10% dialyzed FBS, 1.71 µM
[20] = HPLM + 10% dialyzed FBS, 5.12 µM
[21] = HPLM + 10% dialyzed FBS, 15.4 µM
[22] = HPLM + 10% dialyzed FBS, 46.1 µM
[23] = RPMI 5 mM glucose + 10% FBS, 0.000781 µM
[24] = RPMI 5 mM glucose + 10% FBS, 0.00234 µM
[25] = RPMI 5 mM glucose + 10% FBS, 0.00702 µM
[26] = RPMI 5 mM glucose + 10% FBS, 0.0211 µM
[27] = RPMI 5 mM glucose + 10% FBS, 0.0632 µM
[28] = RPMI 5 mM glucose + 10% FBS, 0.19 µM
[29] = RPMI 5 mM glucose + 10% FBS, 0.569 µM
[30] = RPMI 5 mM glucose + 10% FBS, 1.71 µM
[31] = RPMI 5 mM glucose + 10% FBS, 5.12 µM
[32] = RPMI 5 mM glucose + 10% FBS, 15.4 µM
[33] = RPMI 5 mM glucose + 10% FBS, 46.1 µM

Structure (SMILES) | cell viability [1] | cell viability [2] | cell viability [3] | cell viability [4] | cell viability [5] | cell viability [6] | cell viability [7] | cell viability [8] | cell viability [9] | cell viability [10] | cell viability [11] | cell viability [12] | cell viability [13] | cell viability [14] | cell viability [15] | cell viability [16] | cell viability [17] | cell viability [18] | cell viability [19] | cell viability [20] | cell viability [21] | cell viability [22] | cell viability [23] | cell viability [24] | cell viability [25] | cell viability [26] | cell viability [27] | cell viability [28] | cell viability [29] | cell viability [30] | cell viability [31] | cell viability [32] | cell viability [33]
CC(=O)OC[C@@H]1O[C@H]([C@H](OC(C)=O)[C@@H]1OC(C)=O)N2\C=C/C(=O)NC2=O | 118% | 109% | 137% | 119% | 114% | 143% | 113% | 112% | 122% | 108% | 93.9% |  |  |  |  |  |  |  |  |  |  |  |  |  |  |  |  |  |  |  |  |  | 
CCCCCCNC(=O)N1\C=C(F)/C(=O)NC1=O | 126% | 108% | 116% | 129% | 120% | 107% | 99.8% | 101% | 106% | 80.5% | 46.4% | 126% | 104% | 113% | 118% | 121% | 118% | 124% | 110% | 121% | 108% | 83.1% | 115% | 118% | 128% | 117% | 134% | 117% | 112% | 129% | 118% | 97.9% | 73.6%
CN1CCc2c(c3ccccc3n2Cc2ccc(C(=O)NO)cc2)C1 | 76.7% | 60.4% | 67% | 78.4% | 69.5% | 61.2% | 58.1% | 77.2% | 94.6% | 32% | 22.6% | 81.4% | 76.1% | 79.7% | 95.4% | 84.2% | 79.2% | 70.7% | 83.9% | 88.3% | 25.2% | 11.7% | 87.3% | 78.9% | 88.5% | 92.9% | 84.8% | 78% | 57.5% | 97.3% | 88.3% | 38.6% | 26.2%
Cc1cc(Nc2cc(N3CCN(C)CC3)nc(/C=C/c3ccccc3)n2)n[nH]1 | 100% | 112% | 97.1% | 112% | 95.3% | 57.8% | 28.2% | 6.13% | 4.41% | 3.5% | 5.17% | 83.9% | 109% | 112% | 96.5% | 95.4% | 60.3% | 36.6% | 6.67% | 5.57% | 4.53% | 5.51% | 86.5% | 108% | 94.1% | 112% | 93.8% | 60.6% | 29.5% | 5.23% | 4.53% | 3.57% | 4.68%
